Experimental data reported in patent US9198909B1, “Materials and methods for inhibiting mamalian S-nitrosoglutathione reductase” (Indiana University Research and Technology Corporation, priority 2007, dated 2015).

Key:
[1] = biological target: T1, π-ADH (Homo sapiens, UniProt P08319); test: ADH isozyme selectivity study: π-ADH; format: biochemical; conditions: about 5 μM inhibitor, pH 7.5, 1 mM NAD+, 35 mM ethanol
T1 construct: made in house; host or cells: E. coli
Protocol: (§1) Referring now to Table 2, briefly inhibition studies were performed in presence or absence of about 5 μM inhibitor. These studies were carried out at 25° C. in 50 mM potassium phosphate pH 7.5 including 0.1 mM EDTA. The enzymes activities were measured by following the changes in absorbance at 340 nm. The values show the percent reduction in the enzyme activity (from a minimum of two measurements) caused by the inhibitor. […] Studies with β2β2-, σσ-, π-ADH and involving compounds 5-8 were performed in 0.05% DMSO. Studies with GSNOR were performed in presence of 1% DMSO, except when compound 4 was the inhibitor. Studies with compound 4 were performed in 0.36% DMSO. DMSO at 0.36% inhibited β2β2-, σσ-, and π-ADH by 24, 18, and 9%, respectively. Studies with β2β2-ADH involved adding 3.5 μg of the enzyme to the assay mixture including 2 mM NAD^+, 1 mM ethanol and the inhibitor.
(§2) Studies with σσ-ADH involved adding 0.5 μg of enzyme to the assay mixture containing 2 mM NAD^+, 30 mM ethanol and the inhibitor. Studies with π-ADH involved adding 19.5 μg of the enzyme to the assay mixture including 1 mM NAD^+, 35 mM ethanol and the inhibitor. […]
(§3) Inhibition of the β2β2-, π-, and σ-ADH was evaluated by determining the inhibitory effect of GSNOR inhibitors on the rate of oxidation of ethanol by each of these ADH isozymes. […]

[2] = biological target: T2, σ-ADH (Homo sapiens, UniProt P40394); test: ADH isozyme selectivity study: σ-ADH; format: biochemical; conditions: about 5 μM inhibitor, pH 7.5, 2 mM NAD+, 30 mM ethanol
T2 construct: made in house; host or cells: E. coli
T2 sequence (P40394 whole entry): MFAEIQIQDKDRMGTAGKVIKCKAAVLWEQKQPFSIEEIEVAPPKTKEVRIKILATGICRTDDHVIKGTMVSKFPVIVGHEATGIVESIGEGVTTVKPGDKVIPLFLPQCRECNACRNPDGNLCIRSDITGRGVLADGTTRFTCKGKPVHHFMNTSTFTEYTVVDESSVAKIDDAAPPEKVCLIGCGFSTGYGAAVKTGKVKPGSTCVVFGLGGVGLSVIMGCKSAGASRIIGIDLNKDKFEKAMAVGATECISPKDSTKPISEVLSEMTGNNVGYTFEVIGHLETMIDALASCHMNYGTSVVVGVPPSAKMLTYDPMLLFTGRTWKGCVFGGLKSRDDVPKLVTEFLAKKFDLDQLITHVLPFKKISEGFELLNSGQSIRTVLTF
Protocol: as §1, §2, §3

[3] = biological target: T3, GSNOR (Homo sapiens, UniProt P11766); test: ADH isozyme selectivity study: GSNOR; format: biochemical; design: made in house; host or cells: E. coli; conditions: about 5 μM inhibitor, pH 7.5
Protocol: as §1
Target sequence in this assay (P11766 2-374 limits assumed): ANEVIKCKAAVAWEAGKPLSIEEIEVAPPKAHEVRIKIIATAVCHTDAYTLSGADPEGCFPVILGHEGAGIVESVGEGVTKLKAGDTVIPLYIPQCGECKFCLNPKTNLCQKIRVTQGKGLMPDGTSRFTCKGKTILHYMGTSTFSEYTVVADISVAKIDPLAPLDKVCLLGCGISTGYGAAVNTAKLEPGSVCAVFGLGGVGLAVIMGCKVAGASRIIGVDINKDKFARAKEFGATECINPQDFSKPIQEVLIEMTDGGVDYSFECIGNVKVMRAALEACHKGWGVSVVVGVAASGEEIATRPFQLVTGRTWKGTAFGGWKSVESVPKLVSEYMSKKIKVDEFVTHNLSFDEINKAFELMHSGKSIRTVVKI
Studies with σσ-ADH involved adding 0.5 μg of enzyme to the assay mixture containing 2 mM NAD^+, 30 mM ethanol and the inhibitor. Studies with π-ADH involved adding 19.5 μg of the enzyme to the assay mixture including 1 mM NAD^+, 35 mM ethanol and the inhibitor. Studies with GSNOR involved adding 0.1 μg of the enzyme to an assay mixture including 15 μM NADH, 5 μM GSNO and the inhibitor.

[4] = biological target: T4, GSNOR•NADH complex (Homo sapiens, UniProt P11766); test: Fluorescence equilibrium binding to GSNOR•NADH complex; conditions: 1.7 μM NADH, 2 μM GSNOR, 50 μM compound 8
T4 construct: made in house; host or cells: E. coli
T4 sequence (P11766 2-374 limits assumed, one chain of several): as the sequence (P11766 2-374 limits assumed) above
Protocol: Referring now to FIG. 2, (A) Changes in the fluorescence of NADH (curve a) upon sequential addition of GSNOR (curve b) and compound 8 (curve c). To a solution of 1.7 μM NADH were added 2 μM GSNOR and 50 μM compound 8 in sequence and the fluorescence of the solution measured each time (λexc=350 nm; λemm=375-550 nm); (B) Changes in the fluorescence of NADH (curve a) upon sequential addition of GSNOR (curve b), 12-HDDA (curve c) and compound 8 (curve d). To a solution of 1.7 μM NADH were added 2 μM GSNOR, 810 μM 12-HDDA and 50 μM compound 8 in sequence and the fluorescence measured each time (λexc=350 nm; λemm=375-550 nm); (C) Binding of compound 8 to GSNOR•NADH complex. The change in fluorescence of a 1.7 μM NADH and 2 μM GSNOR mixture (λexc=350 nm; λemm=455 nm) with increasing concentrations of compound 8 was fitted to a single site binding model (equation 1; see materials and methods) using the Graphpad Prizm 4. All of the fluorescence studies were conducted at room temperature in 50 mM potassium phosphate pH 7.5.
Referring now to Table 3, inhibition experiments were performed at 25° C. in 50 mM potassium phosphate (pH 7.5) including 0.1 mM EDTA. […] The dissociation constant was measured at 25° C. in 50 mM potassium phosphate pH 7.5. […]
Fluorescence studies were conducted in 50 mM potassium phosphate pH 7.5, at room temperature using a Fluoromax-2 fluorescence spectrometer (Instruments S.A., Inc., Edison, N.J.). The equilibrium dissociation constant of GSNOR inhibitors was determined by measuring the changes in the fluorescence of GSNOR bound NADH (λexc=350 nm; λemm=455 nm) upon the addition of inhibitor. […] The decrease in fluorescence at 455 nm with each addition of inhibitor was plotted against the final concentration of inhibitor and the data were fitted to equation 1 using nonlinear regression to obtain the dissociation constant of the inhibitor for GSNOR-NADH complex,
[formula] In equation 1, ΔF is the change in the fluorescence at 455 nm upon the addition of inhibitor. ΔFM is the maximum fluorescence change that was obtained from curve fitting. […]

[5] = test system: RAW 264.7 cells; test: Nitroso species accumulation in RAW 264.7 cells (triiodide chemiluminescence); format: cell-based, rat
Protocol: Referring now to FIG. 3, briefly, RAW 264.7 cells were incubated with 500 μM GSNO alone (γ) or in presence of 33 μM Compound 6 (◯) or 7 (Δ) or 8 (▪). At indicated times or at 4 hr (in case of B), the cells were lysed and the lysate was analyzed for protein and nitroso species concentration by Bradford and chemiluminescence assay, respectively. For details, see Materials and methods. Data represents mean±SE (n=3−12).
RAW 264.7 cells were cultured in DMEM medium supplemented with 10% FBS, 200 U/ml of penicillin and 200 μg/mL of streptomycin. The cells were incubated at 37° C. in an atmosphere containing 5% CO2 and 95% air. For the experiments, 1-2×10^6 cells were plated in six-well plates a day before the experiment. On the day of the assay the medium was replaced with 3 ml of fresh medium and the cells were treated with compounds for a predetermined length of time. Following the incubation period, the cells were washed three times with PBS and scraped off the plate in 250 μl of lysis buffer (50 mM potassium phosphate pH 7.0 containing 50 mM NEM and 1 mM EDTA). Cells were lysed by sonication using a micro tip probe (three pulses of 30% duty cycle; 2 output control on a Fisher Sonicator). Cell debris was pelleted by centrifugation (10 min at 16,000 g) and the cell lysate was analyzed for protein concentration using the Bio-Rad dye-binding protein assay. The concentration of nitroso compounds in the cell lysate was determined using the triiodide based chemiluminescence method using a Sievers 280 nitric oxide analyzer. Briefly, cell lysates were treated with 15% v/v of a sulfanilamide solution (5% w/v in 0.2 M HCl) and kept at room temperature for 5 min to remove nitrite. The triodide mixture was prepared fresh every day as described earlier and kept at 60° C. in the reaction vessel. The concentration of nitroso species was derived from a standard curve generated using GSNO. For determining the amount of the small size nitroso compounds in the cell lysate, a 5 kDa-cutoff Amicon ultra filtration unit was used according to the supplier's instructions. The amount of s-nitrosothiols in the cell lysate was determined by treating initially passing the cell lysate through a microspin column and treating the eluate with 5 mM HgCl2 before determining the nitroso compound concentration using chemiluminescence. For some experiments the cells were pretreated with the compounds for 16 hours prior to the day of experiment.

[6] = biological target: T3, GSNOR; test: Dead-end inhibition studies of GSNOR; format: biochemical; design: made in house; host or cells: E. coli; conditions: pH 7.5, 25° C., GSNO held at 10 μM
Protocol: Referring now to Table 3, inhibition experiments were performed at 25° C. in 50 mM potassium phosphate (pH 7.5) including 0.1 mM EDTA. A minimum of five concentrations of the varied substrate and three inhibitor concentrations were used for each experiment. NADH and GSNO concentrations were held at 15 or 10 μM, respectively when present as a constant substrate in the assay. The Kis and Kii values are respectively the slope and intercept inhibition constants and are listed along with their associated standard errors. All data were fit to a competitive (C), noncompetitive (NC), or uncompetitive (UC) inhibition models. The type of inhibition shown in the table represents the best fit of the data to the given model as judged from F statistics analysis. […] The dissociation constant was measured at 25° C. in 50 mM potassium phosphate pH 7.5. Each KD value is an average of three independent experiments and is shown with the associated standard error.
Inhibition experiments with the GSNOR inhibitors were conducted at 25° C. in 3 ml of 50 mM potassium phosphate (pH 7.5) containing 0.1 mM EDTA. […] A minimum of three inhibitor concentrations were used in these assays and the rate of NADH and GSNO consumption was determined spectrophotometrically by following change in absorbance at 340 nm. […]
Target sequence in this assay (P11766 2-374 limits assumed): as above

[7] = biological target: T4, GSNOR•NADH complex; conditions: alcohol substrate, abortive ternary complex; read-out: dissociation constant for the GSNOR•NADH complex; cited from earlier work
[8] = biological target: T3, GSNOR; conditions: read-out: KD of NADH for GSNOR; cited from earlier work
Target sequence in this assay (P11766 whole entry): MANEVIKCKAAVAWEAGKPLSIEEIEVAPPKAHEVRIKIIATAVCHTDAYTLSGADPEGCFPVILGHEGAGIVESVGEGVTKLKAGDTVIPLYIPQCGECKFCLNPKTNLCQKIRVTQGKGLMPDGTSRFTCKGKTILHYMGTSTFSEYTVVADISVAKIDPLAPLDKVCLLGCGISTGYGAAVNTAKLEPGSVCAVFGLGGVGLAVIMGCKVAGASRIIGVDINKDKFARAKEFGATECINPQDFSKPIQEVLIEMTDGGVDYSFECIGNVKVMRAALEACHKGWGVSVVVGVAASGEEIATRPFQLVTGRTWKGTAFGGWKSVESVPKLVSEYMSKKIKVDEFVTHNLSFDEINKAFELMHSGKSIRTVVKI

[9] = biological target: T3, GSNOR; test: GSNOR inhibition at pH 7.5 (GSNO, NADH); format: biochemical; design: made in house; host or cells: E. coli; conditions: Table 1; pH not stated
Protocol: Referring now to Table 1, inhibition was studied at pH 10. These assays were performed in 0.1 M sodium glycine containing 1 mM octanol, 1 mM NAD^+, 0.1 mM EDTA and 50 μM inhibitor. Inhibition studies at pH 7.5 were performed in 50 mM potassium phosphate pH 7.5 that included 15 μM NADH, 10 μM GSNO, 0.1 mM EDTA and 50 μM inhibitor. The data file to a model consisted with partial inhibition and a hill coefficient of 2.4 in the inhibition curve. The screening for GSNOR inhibitors was performed using a library of 60,000 compounds from ChemDiv Inc in the Chemical Genomics Core facility at Indiana University. Screening was conducted in 384 well plates and involved incubating GSNOR with 12.5 μM compound, 1 mM each of NAD^+ and octanol in 0.1 M sodium glycine pH 10. Enzyme activity was determined by measuring the rate of production of NADH spectrophotometrically at 340 nm. Inhibition of GSNOR was calculated from the ratio of enzyme activity in the presence of compounds to that in no compound controls performed on the same assay plate. Following their identification from the high-throughput screening, the GSNOR inhibitory properties of the initial hits were confirmed at the pH 10 using 12-hydroxydodecanoic acid as the substrate and at pH 7.5 using GSNO as the substrate (see the brief description of Table 1 for details on how the assay was carried out.)
Target sequence in this assay (P11766 2-374 limits assumed): as the sequence (P11766 2-374 limits assumed) above

[10] = biological target: T3, GSNOR; test: GSNOR substrate kinetics with octanol; format: biochemical; conditions: octanol versus GSNO
Protocol: GSNOR is an alcohol dehydrogenases and like other members of ADH family, is capable of oxidizing and reducing primary alcohols and aldehydes with the help of a molecule of NAD(H). Octanol was chosen as the substrate in the initial screening assay as it is bulky like GSNO, but has 200-fold higher KM value (1 mM) and a kcat value (200 min-1) that is more than 2 order of magnitude lower than that of GSNO. This allows the initial velocity conditions to prevail for a period up to 10 min (data not shown) and it enables conducting a large number of concurrent assays in a384 well plate format. The pH of the assay was adjusted to pH 10 in order to get significant rate of oxidation of octanol in the absence of compounds. The screening for GSNOR inhibitors was performed in the presence of saturating concentration of NAD^+ and an un-saturating concentration of octanol thereby increase the probability of identifying compounds that bind, only or primarily in the GSNO binding site of GSNOR. This was deemed desirable as there are many dehydrogenases inside the cells and compounds binding in the coenzyme binding site are more likely to be nonspecific inhibitors of GSNOR, than compounds that bind primarily to the form of GSNOR that binds GSNO.
Target sequence in this assay (P11766 whole entry): as the sequence (P11766 whole entry) above

T1 sequence (P08319 whole entry): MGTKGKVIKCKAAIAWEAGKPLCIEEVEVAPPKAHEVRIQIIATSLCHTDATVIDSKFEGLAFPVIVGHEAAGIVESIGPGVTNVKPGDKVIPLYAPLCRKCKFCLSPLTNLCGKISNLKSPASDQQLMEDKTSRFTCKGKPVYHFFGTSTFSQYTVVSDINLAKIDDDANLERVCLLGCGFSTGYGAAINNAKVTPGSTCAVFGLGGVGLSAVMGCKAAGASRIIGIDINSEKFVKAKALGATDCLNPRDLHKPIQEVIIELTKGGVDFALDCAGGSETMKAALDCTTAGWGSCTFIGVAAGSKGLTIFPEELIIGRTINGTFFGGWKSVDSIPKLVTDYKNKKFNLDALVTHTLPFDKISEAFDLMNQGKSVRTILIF

## Cc1ccc(C)c(-c2csc(-c3cc4ccc(O)cc4oc3=O)n2)c1 [Compound 4]
[1]
  inhibition of π-ADH: inhibited π-ADH more than GSNOR

## CC(=O)Oc1ccc(C2Nc3ccc(C(=O)O)cc3C3C=CCC32)c(OC(C)=O)c1 (stereo not shown) [Compound 5]
[2]
  inhibition of σ-ADH: significant inhibition
[3]
  inhibition of GSNOR (in words): modestly good inhibitor

## CC(=O)c1ccc(-n2c(CCC(=O)O)ccc2-c2ccccc2)cc1 [Compound 6]
[4]
  effect on fluorescence of GSNOR bound NADH: quenched the NADH fluorescence
[5]; 33 μM initial concentration, 500 μM GSNO, 4 hr
  nitrosylation, fold higher than Compound 7: 3 fold
[5]; exposure up to 24 hours, data not shown
  decrease in nitrosylated species relative to amounts at 4 hours: 80%
[6]
  type of inhibition against varied NADH: uncompetitive

## O=C(O)CCCCCCCCCCCO [Compound 12-HDDA, 12-hydroxydodecanoic acid]
[7]
  Kd: 170 µM

## N[C@@H](CCC(=O)N[C@@H](CSN=O)C(=O)NCC(=O)O)C(=O)O [GSNO, s-nitrosoglutathione]
[5]; 500 μM GSNO alone
  buildup of nitrosylated compounds in cells: significant buildup
  time to equilibrium level of nitrosylated compounds: ≤ 1 h

## NC(=O)C1=CN([C@@H]2O[C@H](COP(=O)(O)OP(=O)(O)OC[C@H]3O[C@@H](n4cnc5c(N)ncnc54)[C@H](O)[C@@H]3O)[C@@H](O)[C@H]2O)C=CC1 [NADH]
[8]
  Kd: 0.05 µM

## O=C(O)c1ccc2c(c1)C1C=CCC1C(c1ccc(O)cc1O)N2 (stereo not shown) [hydrolyzed form of compound 5]
[9]
  inhibition of GSNOR compared with compound 5 (ester): three fold higher inhibition

## CCCCCCCCO [octanol]
[10]
  KM value, fold higher than GSNO: 200 fold
